Test results from PMC3835915, “Diversification of Fungal Specific Class A Glutathione Transferases in Saprotrophic Fungi” (PLoS ONE, 2013).
Read-outs that look alike come from different tables or passages of the source.

Tests used:
PcGSTFuA2 [1] = target: T1, PcGSTFuA2; assay: ANS displacement, fluorescence; assay type: binding, Phanerodontia chrysosporium; settings: TE buffer pH 8.0; 3 µM enzyme; ANS probe at L-site overlapping G-site
T1 construct: gene GSTFuA2; full length, untagged, pET-3d, E. coli BL21(DE3) pSBET; Ala inserted after Met1; dimer; primers encode N-term MASQPIVF, C-term ERADD
From the text: ANS displacement, fluorescence on PcGSTFuA2

CcGSTFuA6801 [2] = target: T2, CcGSTFuA6801; assay: ANS displacement, fluorescence; assay type: binding, Coprinopsis cinerea; settings: TE buffer pH 8.0; 3 µM enzyme; ANS probe; read-out: PcGSTFuA3 / ANS
T2 construct: gene GSTFuA6801; full length, untagged, pET-3d, E. coli BL21(DE3) pSBET; primers encode N-term MAITFYDI, C-term YHTVA
From the text: ANS displacement, fluorescence on CcGSTFuA6801

PcGSTFuA1 = target: T3, PcGSTFuA1 (Phanerodontia chrysosporium, UniProt I6ZUH3); assay: ANS displacement, fluorescence; assay type: binding
T3 construct: full length, untagged, pET-3d, E. coli BL21(DE3) pSBET; Ala inserted after Met1; dimer; primers encode N-term MAQPIVF, C-term EQVDV
From the text: ANS displacement, fluorescence on PcGSTFuA1

PcGSTFuA4 = target: T4, PcGSTFuA4 (Phanerodontia chrysosporium, UniProt M1NR33); assay: ANS displacement, fluorescence; assay type: binding; settings: TE buffer pH 8.0; 3 µM enzyme; ANS probe at L-site overlapping G-site
T4 construct: full length, untagged, pET-3d, E. coli BL21(DE3) pSBET; primers encode N-term MADVITLY, C-term AHVDL
From the text: ANS displacement, fluorescence on PcGSTFuA4

PcGSTFuA3 [3] = target: T5, PcGSTFuA3; assay: ANS displacement, fluorescence; assay type: binding, Phanerodontia chrysosporium; settings: TE buffer pH 8.0; 3 µM enzyme; ANS probe at L-site overlapping G-site
T5 construct: gene GSTFuA3; full length, untagged, pET-3d, E. coli BL21(DE3) pSBET; Ala inserted after Met1; dimer; primers encode N-term MASLEPII, C-term EFVDV
From the text: ANS displacement, fluorescence on PcGSTFuA3

CcGSTFuA6820 = target: T6, CcGSTFuA6820; assay: inhibition of MUA esterase activity, fluorescence; assay type: biochemical, Coprinopsis cinerea; settings: non-competitive vs MUA; no GSH; 30 mM Tris-HCl pH 8; 2 µM enzyme; read-out: PcGSTFuA4 / ANS
T6 construct: gene GSTFuA6820; full length, untagged, pET-3d, E. coli BL21(DE3) pSBET; primers encode N-term MAITLYDS, C-term YQAVH
From the text: inhibition of MUA esterase activity, fluorescence on CcGSTFuA6820

CcGSTFuA2461 = target: T7, CcGSTFuA2461; assay: inhibition of MUA esterase activity, fluorescence; assay type: biochemical, Coprinopsis cinerea; settings: competitive vs MUA; no GSH; 30 mM Tris-HCl pH 8; 2 µM enzyme; read-out: PcGSTFuA1 / ANS
T7 construct: gene GSTFuA2461; full length, untagged, pET-3d, E. coli BL21(DE3) pSBET; primers encode N-term MAITFYDL, C-term TGSKL
From the text: inhibition of MUA esterase activity, fluorescence on CcGSTFuA2461

PcGSTFuA3 [4] = tested on: T5, PcGSTFuA3; assay: GSH conjugation, absorbance […] nm; assay type: biochemical, Phanerodontia chrysosporium; settings: 5 mM GSH; pH 6.5; 2% acetonitrile
CcGSTFuA6801 [5] = tested on: T2, CcGSTFuA6801; assay: GSH conjugation, absorbance […] nm; assay type: biochemical, Coprinopsis cinerea; settings: 5 mM GSH; pH 6.5; 2% acetonitrile
CcGSTFuA6800 = tested on: T8, CcGSTFuA6800; assay: esterase activity, fluorescence; assay type: biochemical, Coprinopsis cinerea; settings: no GSH
T8 construct: gene GSTFuA6800; full length, untagged, pET-3d, E. coli BL21(DE3) pSBET; primers encode N-term MAIILYDL, C-term YTTVV
From the text: esterase activity, fluorescence on CcGSTFuA6800

PcGSTFuA2 [6] = tested on: T1, PcGSTFuA2; assay: esterase activity, fluorescence; assay type: biochemical, Phanerodontia chrysosporium; settings: no GSH; 30 mM Tris-HCl pH 8
From the text: esterase activity, fluorescence on PcGSTFuA2

T3 sequence (I6ZUH3 entry or part of it): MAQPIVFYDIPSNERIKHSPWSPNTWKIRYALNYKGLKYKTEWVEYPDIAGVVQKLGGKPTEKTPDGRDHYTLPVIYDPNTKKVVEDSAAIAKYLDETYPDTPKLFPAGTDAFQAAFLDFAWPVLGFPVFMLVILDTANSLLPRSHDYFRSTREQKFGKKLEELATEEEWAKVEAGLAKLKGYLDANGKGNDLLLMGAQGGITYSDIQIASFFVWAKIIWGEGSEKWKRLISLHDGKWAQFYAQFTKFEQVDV
T4 sequence (M1NR33 entry or part of it): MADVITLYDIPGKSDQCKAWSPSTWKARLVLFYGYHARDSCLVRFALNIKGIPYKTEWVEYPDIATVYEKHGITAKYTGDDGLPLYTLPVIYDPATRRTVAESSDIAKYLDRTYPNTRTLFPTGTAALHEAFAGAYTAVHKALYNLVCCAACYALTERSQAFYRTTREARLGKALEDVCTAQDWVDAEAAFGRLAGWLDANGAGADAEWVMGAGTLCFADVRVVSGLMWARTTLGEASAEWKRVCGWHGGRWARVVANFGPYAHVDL

COc1cc(C=O)cc(OC)c1O [Syringaldehyde]
IC50 (PcGSTFuA2 [1]): 89.3 ± 2.8 µM
IC50 (CcGSTFuA6801 [2]): 276 ± 97.8 µM
IC50 (PcGSTFuA1): 62.5 ± 1.6 µM
IC50 (PcGSTFuA4): 199 ± 25.2 µM
IC50 (PcGSTFuA3 [3]): 37.2 ± 3.8 µM
Ki (CcGSTFuA6820): 594 ± 37.6 µM

O=C(O)c1ccc(Cl)c([N+](=O)[O-])c1 [4-chloro-3-nitrobenzoic acid]
Ki (CcGSTFuA2461): 287 ± 29.7 µM

O=C(O)c1cc(O)c(O)c(O)c1 [Gallic acid]
Ki (CcGSTFuA2461): 114 ± 8.9 µM
Ki (CcGSTFuA6820): 566 ± 16.5 µM

S=C=NCCc1ccccc1 [phenethyl-ITC]
Km (PcGSTFuA3 [4]): 53.2 ± 5.37 µM
Km (CcGSTFuA6801 [5]): 41.6 ± 3.73 µM

CC(=O)Oc1ccc2c(c1)Oc1cc(OC(C)=O)ccc1C21OC(=O)c2cc(CCl)ccc21 [CMFDA]
Km (CcGSTFuA6800; 50 mM phosphate pH 8.0, read-out: CcGSTFuA6800): 0.153 ± 0.023 µM

COc1cc(/C=C/C=O)ccc1O [Coniferaldehyde]
IC50 (CcGSTFuA6801 [2]): 327 ± 50.6 µM
IC50 (PcGSTFuA1): 62.3 ± 1.2 µM
IC50 (PcGSTFuA4): 147 ± 5.1 µM
IC50 (PcGSTFuA3 [3]): 68.4 ± 25.3 µM

COc1cc(C=O)ccc1O [Vanillin]
IC50 (PcGSTFuA2 [1]): 84.7 ± 5.2 µM

CC(=O)Oc1ccc2c(C)cc(=O)oc2c1 [MUA]
Km (CcGSTFuA6800; 30 mM Tris-HCl pH 8, read-out: PcGSTFUA2): 25.4 ± 4.37 µM
Km (PcGSTFuA2 [6]): 23.5 ± 6.2 µM
